# Data from patent US8796428B2, “Erk1/2 posphorylation site specific antibody” (Julius-Maximilians-Universitaet Wuerzburg, priority 2008, dated 2014).
# Experiments:
# [1] = tested on: Mek; assay: Determination of total inositol phosphates in HEK293-cells; format: cell-based; settings: carbachol 50 μM, 15 min
# Method: For determination of total inositol phosphates, the inventors transfected HEK293-cells with the indicated Erk2-constructs. After labeling of the cells with myo-[2-^3H]-inositol (1 mCi ml^−1) in inositol-free DMEM for 24 h, the inventors incubated the cells in incubation buffer (137 mM NaCl, 5 mM KCl, 10 mM LiCl, 1 mM CaCl2, 1 mM MgCl2, 10 mM HEPES, […]) for 15 min. The inventors extracted the inositol phosphates by addition of HClO4 (20%) before neutralizing the extract with KOH (1 M), removing the precipitates by centrifugation and applying the supernatants to anion exchange columns (DowexAG1×8, Biorad). The inventors then eluted total inositol phosphates by HCl (1 M) and measured the incorporated radioactivity by scintillation counting.
# [2] = tested on: Mek1/2; assay: Co-immunoprecipitation of HA-Raf1 with Gβ in HEK293 cells; format: cell-based; settings: PD98059 50 μM, CCH, 5 min
# Method: The inventors prepared cell lysates and tissue lysates using lysis buffer (0.5% (v/v) NP-40, 150 mM NaCl, 25 mM Na4P2O7, 50 mM β-glycerol phosphate disodium salt, 2 mM EDTA, 2 mM EGTA, 25 mM Tris, pH 8.0, 10% (v/v) glycerol, 10 μg ml^−1 soybean trypsin inhibitor, 1 mM benzamidine, 1 mM PMSF, 50 mM NaF, 0.1 mM Na3VO4, 0.002% (w/v) NaN3) similarly as described (Lorenz et al., 2003). The inventors determined the interaction of Gβγ with endogenous Raf1, ERK1/2, HA-tagged Raf1 or HA-tagged Erk2 constructs by immunoprecipitation with the respective antibodies (as indicated in the figures). After immunoprecipitation, the inventors detected co-immunoprecipitated proteins in immunoblot analyses using the respective antibodies (as indicated in the figures). Before lysis, the inventors incubated adult or neonatal cardiomyocytes with or without agonist as indicated (angiotensinII, 100 nM, 5 min or 24 h; carbachol, 300 μM, 10 min or 36 h; neuregulin1-β1, 20 ng ml^−1, 10 min or 24 h; phenylephrine, 35 μM, 5 min or 48 h). […] The inventors prepared ventricular tissue from mouse hearts derived from male 129SvEv (FIG. 1g,h), FVB/N wild-type (WT) or Erk2^T188-transgenic mice (1188T, T188D, T188S, T188A) (FVB/N background) without or after transverse aortic constriction (TAC, see Fig. legends for the duration of TAC) or carbachol-infusion. Control animals were strain-, age- and gender-matched. […]
# [3] = tested on: Gβγ interaction with Raf1 and Erk1/2; assay: Co-immunoprecipitation of Gβγ with Raf1 and Erk1/2 in neonatal rat cardiomyocytes; format: cell-based; settings: angiotensinII 100 nM 5 min, carbachol 300 μM 10 min, neuregulin 20 ng ml^−1 10 min
# Method: (§1) The inventors prepared cell lysates and tissue lysates using lysis buffer (0.5% (v/v) NP-40, 150 mM NaCl, 25 mM Na4P2O7, 50 mM β-glycerol phosphate disodium salt, 2 mM EDTA, 2 mM EGTA, 25 mM Tris, pH 8.0, 10% (v/v) glycerol, 10 μg ml^−1 soybean trypsin inhibitor, 1 mM benzamidine, 1 mM PMSF, 50 mM NaF, 0.1 mM Na3VO4, 0.002% (w/v) NaN3) similarly as described (Lorenz et al., 2003). The inventors determined the interaction of Gβγ with endogenous Raf1, ERK1/2, HA-tagged Raf1 or HA-tagged Erk2 constructs by immunoprecipitation with the respective antibodies (as indicated in the figures). After immunoprecipitation, the inventors detected co-immunoprecipitated proteins in immunoblot analyses using the respective antibodies (as indicated in the figures). Before lysis, the inventors incubated adult or neonatal cardiomyocytes with or without agonist as indicated (angiotensinII, 100 nM, 5 min or 24 h; carbachol, 300 μM, 10 min or 36 h; neuregulin1-β1, 20 ng ml^−1, 10 min or 24 h; phenylephrine, 35 μM, 5 min or 48 h). HEK293-cells were cultured in the absence or presence of carbachol (100 μM, 6 min) or UK14304 (1 μM, 10 min) before lysis. […]
# [4] = tested on: Erk1/2; assay: Immunoblot of Thr188-phosphorylation of Erk1/2 in cardiomyocytes; format: cell-based; settings: 20 ng ml^−1
# Method: as §1, with “[…];” for “neuregulin1-β1, 20 ng ml^−1, 10 min or 24 h;”
# [5] = tested on: Gαq/11; assay: Detection of tyrosine phosphorylated Gαq/11 in neonatal cardiomyocytes; format: cell-based, rat; settings: 20 ng ml^−1, 10 min
# Method: (§2) The inventors assessed phosphorylation of Gαq/11 by immunoprecipitation of Gαq/11 from lysates of neonatal cardiomyocytes without or with neuregulin1-β1 treatment (20 ng ml^−1, 10 min) using Gαq/11-specific antibodies (sc-392 AC, Santa Cruz) followed by detection of phosphotyrosine and immunoprecipitated Gαq/11 by immunoblot analyses. The inventors prepared the lysates as described above.
# [6] = tested on: Src-kinase; assay: Neuregulin-induced hypertrophic effects in neonatal cardiomyocytes with Src-kinase inhibitor; format: cell-based, rat
# Method: as §2
# The inventors measured protein synthesis rates in isolated cardiomyocytes by [^3H]isoleucine incorporation. The inventors seeded transfected cardiomyocytes on 24-well plates in MEM supplemented with bromodeoxyuridine (25 mg l^−1), cobalamin (2 mg l^−1), NaHCO3 (350 mg l^−1), penicillin (100 U ml^−1), streptomycin (100 μg ml^−1) and 5% (v/v) fetal calf serum. After 24 h, the inventors reduced the serum concentration to 1% for 1 day followed by fasting in serum-free medium for 24-48 h. Thereafter, the inventors labeled the cells with [^3H]isoleucine (1 μCi ml^−1) for 24-48 h in the absence or presence of 100 nM angiotensinII, 300 μM carbachol, 10 ng ml^−1 neuregulin1-β1 or 35 μM (R)-(−)-phenylephrine as indicated. The inventors measured radioactivity incorporated into the TCA (trichloroacetic acid)-precipitable material by scintillation counting.
compound,measurement,setting,value
COc1cccc(-c2cc(=O)c3ccccc3o2)c1N [PD98059],carbachol-stimulated inositol phosphate signaling compared to control cells,[1],enhanced
same,carbachol-stimulated interaction of HA-Raf1 with Gβ,[2],suppressed
neuregulin1-β1,co-immunoprecipitation of Gβγ with both Raf1 and Erk1/2,[3],permitted
same,Thr188-phosphorylation of Erk1/2,[4],induced
same,phosphorylation of Gαq/11 at Tyr356,[5],triggered
"angiotensinII (DRVYIHPF; Angiotensin-2; UniProt P01019 25-32, looked up) [triggers hypertrophy via Gq-coupled AT1-receptors]",co-immunoprecipitation of Gβγ with both Raf1 and Erk1/2,[3],markedly enhanced
CC(C)(C)n1nc(-c2ccc(Cl)cc2)c2c(N)ncnc21 [PP2],"effect on neuregulin-induced effects (Gβγ co-immunoprecipitation, Gαq/11 phosphorylation, protein synthesis)",[6],blocked
